Assays:
Details in all cases: 48 h
[1] = system: NOMO1; test: cell viability relative to DMSO control; higher = less cytotoxic
In short: (§1)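 Cells were incubated for 48 h at 37°C before CellTiter-Glo One luminescence was read. The cells were NOMO1 or SEM (500 cells/well) or P12-Ichikawa (1000 cells/well) leukemia cells, adapted for at least four passages in each medium and seeded in 1536-well plates (5 μl). Dosing used library compounds in DMSO applied by pin over 11 threefold points, 47 μM to 0.79 nM. Viability is the per-plate percentage of DMSO wells, with cell-free wells as background.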

[2] = system: SEM cells; test: as above
In short: as §1

[3] = system: P12-Ichikawa; test: as above
In short: as §1

[4] = system: NOMO1; test: AUC of viability dose-response curve (% viability x log10 dose units); higher = less sensitive
In short: (§2)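 Library compounds in DMSO were applied for 48 h at 37°C at 11 threefold doses (47 μM to 0.79 nM) to medium-adapted leukemia cells in 1536-well plates holding 500 or 1000 cells/well. Luminescence from CellTiter-Glo One was normalised plate by plate against DMSO and cell-free wells. Area under the curve came from trapezoidal integration of a log-logistic fit, after scaling curves that rose above full viability and discarding those that failed quality control. The fit had four parameters and used log10 doses.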

[5] = system: SEM cells; test: as above
In short: as §2

[6] = system: P12-Ichikawa; test: as above
In short: as §2

CO[C@H]1C[C@@H]2CC[C@@H](C)[C@@](O)(O2)C(=O)C(=O)N2CCCC[C@H]2C(=O)O[C@H]([C@H](C)C[C@@H]2CC[C@@H](OP(C)(C)=O)[C@H](OC)C2)CC(=O)[C@H](C)/C=C(\C)[C@@H](O)[C@@H](OC)C(=O)[C@H](C)C[C@H](C)/C=C/C=C/C=C/1C
cell viability [%]
Details | [1] | [2] | [3]
HPLM + 10% dialyzed FBS, 0.000781 µM | 110 | 91 | –
HPLM + 10% dialyzed FBS, 0.00234 µM | 114 | 97.7 | –
HPLM + 10% dialyzed FBS, 0.00702 µM | 109 | 99.9 | –
HPLM + 10% dialyzed FBS, 0.0211 µM | 116 | 98.8 | –
HPLM + 10% dialyzed FBS, 0.0632 µM | 106 | 81.7 | –
HPLM + 10% dialyzed FBS, 0.19 µM | 113 | 40.8 | –
HPLM + 10% dialyzed FBS, 0.569 µM | 102 | 80.2 | –
HPLM + 10% dialyzed FBS, 1.71 µM | 105 | 81.9 | –
HPLM + 10% dialyzed FBS, 5.12 µM | 96.7 | 75.4 | –
HPLM + 10% dialyzed FBS, 15.4 µM | 97 | 71.1 | –
HPLM + 10% dialyzed FBS, 46.1 µM | 94.5 | 64.1 | –
RPMI 5 mM glucose + 10% FBS, 0.000781 µM | – | 87.7 | 119
RPMI 5 mM glucose + 10% FBS, 0.00234 µM | – | 96 | 138
RPMI 5 mM glucose + 10% FBS, 0.00702 µM | – | 105 | 121
RPMI 5 mM glucose + 10% FBS, 0.0211 µM | – | 76.7 | 126
RPMI 5 mM glucose + 10% FBS, 0.0632 µM | – | 80.9 | 118
RPMI 5 mM glucose + 10% FBS, 0.19 µM | – | 42.9 | 97.7
RPMI 5 mM glucose + 10% FBS, 0.569 µM | – | 85.8 | 122
RPMI 5 mM glucose + 10% FBS, 1.71 µM | – | 78.8 | 96.3
RPMI 5 mM glucose + 10% FBS, 5.12 µM | – | 63.7 | 88.4
RPMI 5 mM glucose + 10% FBS, 15.4 µM | – | 66.6 | 100
RPMI 5 mM glucose + 10% FBS, 46.1 µM | – | 52.9 | 81.4
RPMI 5 mM glucose + 10% dialyzed FBS, 0.000781 µM | 122 | 105 | –
RPMI 5 mM glucose + 10% dialyzed FBS, 0.00234 µM | 113 | 98.1 | –
RPMI 5 mM glucose + 10% dialyzed FBS, 0.00702 µM | 118 | 108 | –
RPMI 5 mM glucose + 10% dialyzed FBS, 0.0211 µM | 115 | 108 | –
RPMI 5 mM glucose + 10% dialyzed FBS, 0.0632 µM | 117 | 92.3 | –
RPMI 5 mM glucose + 10% dialyzed FBS, 0.19 µM | 121 | 40.3 | –
RPMI 5 mM glucose + 10% dialyzed FBS, 0.569 µM | 120 | 85.7 | –
RPMI 5 mM glucose + 10% dialyzed FBS, 1.71 µM | 125 | 86.9 | –
RPMI 5 mM glucose + 10% dialyzed FBS, 5.12 µM | 124 | 71.9 | –
RPMI 5 mM glucose + 10% dialyzed FBS, 15.4 µM | 103 | 68.2 | –
RPMI 5 mM glucose + 10% dialyzed FBS, 46.1 µM | 120 | 57.1 | –

AUC of viability dose-response curve
Details | [4] | [5] | [6]
HPLM + 10% dialyzed FBS | 452 | 382 | 453
RPMI 5 mM glucose + 10% FBS | 462 | 360 | 411
RPMI 5 mM glucose + 10% dialyzed FBS | 476 | 380 | 414

Cc1ccc(-n2nc(C(C)(C)C)cc2NC(=O)Nc2ccc(OCCN3CCOCC3)c3ccccc23)cc1
cell viability [%]
Details | [1] | [2] | [3]
HPLM + 10% dialyzed FBS, 0.000781 µM | 104 | 78.7 | 106
HPLM + 10% dialyzed FBS, 0.00234 µM | 103 | 94 | 112
HPLM + 10% dialyzed FBS, 0.00702 µM | 119 | 91.9 | 113
HPLM + 10% dialyzed FBS, 0.0211 µM | 123 | 90.8 | 115
HPLM + 10% dialyzed FBS, 0.0632 µM | 114 | 86.7 | 111
HPLM + 10% dialyzed FBS, 0.19 µM | 104 | 100 | 117
HPLM + 10% dialyzed FBS, 0.569 µM | 111 | 84 | 119
HPLM + 10% dialyzed FBS, 1.71 µM | 115 | 86.2 | 126
HPLM + 10% dialyzed FBS, 5.12 µM | 120 | 82.2 | 114
HPLM + 10% dialyzed FBS, 15.4 µM | 114 | 63.7 | 109
HPLM + 10% dialyzed FBS, 46.1 µM | 96 | 61.8 | 102
RPMI 5 mM glucose + 10% FBS, 0.000781 µM | 102 | 96.6 | 106
RPMI 5 mM glucose + 10% FBS, 0.00234 µM | 101 | 115 | 107
RPMI 5 mM glucose + 10% FBS, 0.00702 µM | 113 | 104 | 103
RPMI 5 mM glucose + 10% FBS, 0.0211 µM | 103 | 103 | 97.7
RPMI 5 mM glucose + 10% FBS, 0.0632 µM | 104 | 87.1 | 113
RPMI 5 mM glucose + 10% FBS, 0.19 µM | 97.1 | 87.1 | 112
RPMI 5 mM glucose + 10% FBS, 0.569 µM | 107 | 84.1 | 113
RPMI 5 mM glucose + 10% FBS, 1.71 µM | 106 | 80.8 | 117
RPMI 5 mM glucose + 10% FBS, 5.12 µM | 95.8 | 83.6 | 112
RPMI 5 mM glucose + 10% FBS, 15.4 µM | 95.4 | 64 | 88.7
RPMI 5 mM glucose + 10% FBS, 46.1 µM | 98.1 | 74.8 | 85.2
RPMI 5 mM glucose + 10% dialyzed FBS, 0.000781 µM | 88.2 | 89.9 | 105
RPMI 5 mM glucose + 10% dialyzed FBS, 0.00234 µM | 105 | 97.9 | 100
RPMI 5 mM glucose + 10% dialyzed FBS, 0.00702 µM | 111 | 79.6 | 112
RPMI 5 mM glucose + 10% dialyzed FBS, 0.0211 µM | 106 | 94.1 | 121
RPMI 5 mM glucose + 10% dialyzed FBS, 0.0632 µM | 106 | 92 | 109
RPMI 5 mM glucose + 10% dialyzed FBS, 0.19 µM | 108 | 90 | 116
RPMI 5 mM glucose + 10% dialyzed FBS, 0.569 µM | 118 | 83.7 | 125
RPMI 5 mM glucose + 10% dialyzed FBS, 1.71 µM | 120 | 84.7 | 126
RPMI 5 mM glucose + 10% dialyzed FBS, 5.12 µM | 99.9 | 84.1 | 116
RPMI 5 mM glucose + 10% dialyzed FBS, 15.4 µM | 107 | 51.7 | 97.5
RPMI 5 mM glucose + 10% dialyzed FBS, 46.1 µM | 96.2 | 58.8 | 104

AUC of viability dose-response curve
Details | [4] | [5] | [6]
HPLM + 10% dialyzed FBS | 474 | 403 | 477
RPMI 5 mM glucose + 10% FBS | 460 | 399 | 463
RPMI 5 mM glucose + 10% dialyzed FBS | 471 | 398 | 473

Cc1cc2c(C(C)C)c(O)c(O)c(C=O)c2c(O)c1-c1c(C)cc2c(C(C)C)c(O)c(O)c(C=O)c2c1O
cell viability [%]
Details | [1] | [2] | [3]
HPLM + 10% dialyzed FBS, 0.000781 µM | 122 | 107 | 113
HPLM + 10% dialyzed FBS, 0.00234 µM | 123 | 114 | 111
HPLM + 10% dialyzed FBS, 0.00702 µM | 135 | 105 | 111
HPLM + 10% dialyzed FBS, 0.0211 µM | 137 | 113 | 113
HPLM + 10% dialyzed FBS, 0.0632 µM | 115 | 112 | 108
HPLM + 10% dialyzed FBS, 0.19 µM | 107 | 101 | 99.6
HPLM + 10% dialyzed FBS, 0.569 µM | 116 | 116 | 108
HPLM + 10% dialyzed FBS, 1.71 µM | 105 | 101 | 104
HPLM + 10% dialyzed FBS, 5.12 µM | 105 | 99.2 | 102
HPLM + 10% dialyzed FBS, 15.4 µM | 100 | 110 | 98.1
HPLM + 10% dialyzed FBS, 46.1 µM | 50.8 | 27.6 | 17.1
RPMI 5 mM glucose + 10% FBS, 0.000781 µM | 100 | – | 117
RPMI 5 mM glucose + 10% FBS, 0.00234 µM | 116 | – | 125
RPMI 5 mM glucose + 10% FBS, 0.00702 µM | 104 | – | 127
RPMI 5 mM glucose + 10% FBS, 0.0211 µM | 109 | – | 121
RPMI 5 mM glucose + 10% FBS, 0.0632 µM | 107 | – | 119
RPMI 5 mM glucose + 10% FBS, 0.19 µM | 106 | – | 106
RPMI 5 mM glucose + 10% FBS, 0.569 µM | 115 | – | 117
RPMI 5 mM glucose + 10% FBS, 1.71 µM | 97.1 | – | 101
RPMI 5 mM glucose + 10% FBS, 5.12 µM | 98.5 | – | 112
RPMI 5 mM glucose + 10% FBS, 15.4 µM | 92.8 | – | 106
RPMI 5 mM glucose + 10% FBS, 46.1 µM | 12 | – | 10.6
RPMI 5 mM glucose + 10% dialyzed FBS, 0.000781 µM | 115 | 106 | 116
RPMI 5 mM glucose + 10% dialyzed FBS, 0.00234 µM | 115 | 123 | 124
RPMI 5 mM glucose + 10% dialyzed FBS, 0.00702 µM | 114 | 120 | 118
RPMI 5 mM glucose + 10% dialyzed FBS, 0.0211 µM | 121 | 109 | 116
RPMI 5 mM glucose + 10% dialyzed FBS, 0.0632 µM | 114 | 112 | 111
RPMI 5 mM glucose + 10% dialyzed FBS, 0.19 µM | 102 | 113 | 109
RPMI 5 mM glucose + 10% dialyzed FBS, 0.569 µM | 103 | 117 | 110
RPMI 5 mM glucose + 10% dialyzed FBS, 1.71 µM | 106 | 103 | 104
RPMI 5 mM glucose + 10% dialyzed FBS, 5.12 µM | 110 | 106 | 110
RPMI 5 mM glucose + 10% dialyzed FBS, 15.4 µM | 94.6 | 90 | 100
RPMI 5 mM glucose + 10% dialyzed FBS, 46.1 µM | 27.5 | 6.54 | 22

AUC of viability dose-response curve
Details | [4] | [5] | [6]
HPLM + 10% dialyzed FBS | 445 | 459 | 453
RPMI 5 mM glucose + 10% FBS | 449 | 447 | 451
RPMI 5 mM glucose + 10% dialyzed FBS | 452 | 444 | 452

— the supplement of paper PMC11451515
